# Results taken from the OPERA property sets (Mansouri et al. 2018).
# Where a SMILES comes first, the peptide text is derived from it.
row,SMILES,logP
1,CC1=C(C(=O)O)N2C(=O)C(NC(=O)C(OC(=O)C(C)C)c3ccccc3)C2SC1 (configuration not stated),2.05
2,Clc1ccc(-c2c(Cl)c(Cl)cc(Cl)c2Cl)cc1Cl,7.2
3,CC1CC2C3CCC4=CC(=O)C=CC4(C)C3(F)C(O)CC2(C)C1(O)C(=O)NCc1ccc([N+](=O)[O-])cc1 (configuration not stated),3.44
4,O=C(NCCCCO)C(F)(F)Cn1ccnc1[N+](=O)[O-],-0.29
5,COCCN1CCc2cccc(Cl)c2CC1,3
6,CCC1(CC)OCC(c2ccc(NC(=O)N(C)C)cc2C)CO1,2.76
7,CC1=CCC2C(C1)c1c(O)cc(NS(C)(=O)=O)cc1OC2(C)C (configuration not stated),3.12
8,CC(=O)OC1C(=O)C2(C)C(O)CC3OCC3(OC(C)=O)C2C(OC(=O)c2ccccc2)C2(O)CC(OC(=O)C(O)Cc3ccccc3)C(C)=C1C2(C)C (configuration not stated),2.9
9,CC(C)(C)NC(=O)C1CN(C(=O)OCc2ccccc2)CCN1CC(O)CC(Cc1ccccc1)C(=O)NC1c2ccccc2CC1O (configuration not stated),4.67
10,CC(=O)NC(CC(=O)O)C(=O)NC(Cc1ccccc1)C(=O)NC(CC(C)C)C(N)=O (stereo not drawn) (Ac-Asp-Phe-Leu-NH2; configuration not given here),0.4
11,CC1(c2ccccc2)OC(=O)NC1=O (configuration not stated),1.85
12,O=[N+]([O-])c1cnc(C=Cc2ccccc2)n1CCO,2.25
13,CCCCOc1ccc(OCC(OC(=O)n2ccnc2)C(C)(C)C)cc1 (configuration not stated),4.29
14,CCCCCOc1ccc(NC(=O)OCCN2CCOCC2)cc1,3.96
15,O=S1(=O)NC(C2CCCCC2)=Nc2ccccc21,2.2
16,CC1CC2C3CCC4=CC(=O)C=CC4(C)C3(F)C(O)CC2(C)C1(O)C(=O)NCc1ccccc1 (configuration not stated),3.28
17,COc1ccc(NC(=O)OCCN2CCOCC2)cc1,1.7
18,COc1ccc(COC(C(=O)O)c2ccccc2)cc1Cl (configuration not stated),2.45
19,CC1CC2C3CCC4=CC(=O)C=CC4(C)C3(F)C(O)CC2(C)C1(O)C(=O)NC(C)(C)C (configuration not stated),3.2
20,CC(CCC(N)=O)n1nnc2ccccc21 (configuration not stated),1.15
21,Clc1cc(Cl)cc(-c2cccc(Cl)c2Cl)c1,6.17

row,SMILES,logP
1,CCN1C(=O)C(=O)c2c(Cl)cccc2C1=O,1.43
2,COc1cccc(N2CCN(CCN(C)C)C2=O)c1,1.76
3,NC(=O)c1ccccc1N=NN1CCC1,2.91
4,NC(=O)c1cc(-c2ccccc2)nnc1NCCN1CCOCC1,1.86
5,CCCCCC(=O)OCCOCn1cnc2c(=O)[nH]c(N)nc21,0.93
6,Oc1ccc(I)c2cccnc12,3.27
7,CC(=NOCC(=O)O)c1cc(Oc2ccc(C(F)(F)F)cc2Cl)ccc1[N+](=O)[O-],4.3
8,COCCNC(=S)Cn1cnc([N+](=O)[O-])n1,0.25
9,c1ccc(SCc2ccccc2CCCN2CCOCC2)cc1,3.8
10,Nc1ncc(Cc2cccc(Cl)c2Cl)c(N)n1,2.81
11,Clc1cc(Cl)c(-c2cc(Cl)c(Cl)c(Cl)c2)c(Cl)c1,7.25
12,CC(=O)NC(Cc1ccccc1)C(=O)NC(CCC(=O)O)C(=O)NC(Cc1ccccc1)C(N)=O (stereo not drawn) (Ac-Phe-Glu-Phe-NH2; configuration not given here),0.65
13,Cc1ncc([N+](=O)[O-])n1CC#N,-0.07
14,CNC(=NC#N)NCCSCc1ncn(COC(=O)C(C)(C)C)c1C,1.81
15,S=C(N/N=C/c1ccc[nH]1)Nc1ccccc1,3.73
16,CCc1nc(C)c([N+](=O)[O-])[nH]1,0.76
17,CC1CC2C3CCC4=CC(=O)C=CC4(C)C3(F)C(O)CC2(C)C1(O)C(=O)NCC#N (configuration not stated),1.57
18,O=C1CC(Sc2nc3ccccc3s2)N1 (configuration not stated),2.3
19,CCN1C(=O)C(=O)c2c(C#N)cccc2C1=O,0.41
20,CCCCCc1cc(CCCCN2CC(=O)c3ccccc3C2=O)c2c(c1)OC(C)(C)C1CC=C(C)CC21 (configuration not stated),9.07
21,CC(C)(C)c1ccc2c(c1)OCCOCCOCCOCCO2,2.26

row,SMILES,logP
1,CC1CC(C(=O)O)=C(C(=O)O)C(C)C1 (configuration not stated),1.53
2,O=c1[nH]c(Nc2ccccc2)nc2c1ncn2CC(O)CO (configuration not stated),0.4
3,C#CCOc1c(Cl)cc(NC=NOCCOCC)cc1Cl,3.7
4,O=C(O)c1c(Br)cccc1Br,3.58
5,O=[N+]([O-])C=C1NCCN1Cc1cnc(Cl)s1,-0.04
6,CCCn1cnc2c(NC(C)=O)ncnc21,0.09
7,CCCNC(=O)C1(O)C(C)CC2C3CCC4=CC(=O)C=CC4(C)C3(F)C(O)CC21C (configuration not stated),2.59
8,CC(=O)NC(Cc1ccccc1)C(=O)NC(CCCCN)C(N)=O (configuration not stated),0.14
9,Cc1ccc(C(=O)OCCN(C)C)cc1,2.53
10,CCN(CC)CCSC(=NO)c1nonc1C,1.4
11,CCN1C(=O)C(=O)c2ccccc2C1=O,1.13
12,O=c1cccccc1,0.26
13,CCCCOC(=O)c1cnc2n(c1=O)C(C)CCC2 (configuration not stated),1.77
14,c1ccc2c3c([nH]c2c1)CN1CCNCC1C3 (configuration not stated),0.36
15,CCCn1c(=O)c2[nH]c(-c3ccc(Cl)cc3N)nc2n(CCC)c1=O,4.02
16,Cc1nc2sccn2c(=O)c1CCN1CCC(=C(c2ccc(F)cc2)c2ccc(F)cc2)CC1,5.2
17,C=C1C(=O)OC2CC(C)C3C=CC(=O)C3(C)C(OC(=O)CCCC(=O)OC3C4C(=C)C(=O)OC4CC(C)C4C=CC(=O)C43C)C12 (configuration not stated),1.37
18,COCC(Cn1ccnc1[N+](=O)[O-])OC(C)=O (configuration not stated),-0.04
19,Cc1nc(Br)c([N+](=O)[O-])n1C,0.87
20,O=c1[nH]nc(SCc2ccccc2)[nH]1,1.47
